{"source": "ChEMBL document CHEMBL3046459", "about": "“Structural insights for 3H-1, -2, -4 triazolinones as angiotensin II receptor antagonists using QSAR techniques” (Med Chem Res, 2010)", "note": "pIC50: −log10 of the molar value."}
{"biological_target": "T1, Type-1 angiotensin II receptor (Oryctolagus cuniculus) (UniProt P34976)", "T1 sequence (whole entry)": "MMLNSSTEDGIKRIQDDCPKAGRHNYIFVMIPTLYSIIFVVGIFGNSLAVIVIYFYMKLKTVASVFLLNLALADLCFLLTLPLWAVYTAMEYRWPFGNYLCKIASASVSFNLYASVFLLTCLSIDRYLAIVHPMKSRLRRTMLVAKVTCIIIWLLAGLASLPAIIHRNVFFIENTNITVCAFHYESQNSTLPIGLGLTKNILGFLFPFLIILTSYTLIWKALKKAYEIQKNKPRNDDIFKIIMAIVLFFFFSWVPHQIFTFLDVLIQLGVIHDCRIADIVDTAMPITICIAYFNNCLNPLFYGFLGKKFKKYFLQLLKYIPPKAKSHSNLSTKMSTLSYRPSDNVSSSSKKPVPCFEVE", "experiment": "(§1) Antagonist activity at angiotensin 2 type-1 receptor in Oryctolagus cuniculus (rabbit) aorta in presence of bovine serum albumin", "design": "unit not given here"}
{"smiles": "CCCCc1nn(-c2ccc(C)cc2)c(=O)n1Cc1ccc(-c2ccccc2-c2nn[nH]n2)cc1", "logIC50": 1.2}
{"smiles": "CCCCc1nn(Cc2c(F)c(F)c(F)c(F)c2F)c(=O)n1Cc1ccc(-c2ccccc2-c2nn[nH]n2)cc1", "logIC50": 1.5}
{"smiles": "CCCCc1nn(Cc2cccc(C(=O)OC)c2)c(=O)n1Cc1ccc(-c2ccccc2-c2nn[nH]n2)cc1", "logIC50": 2.04}
{"smiles": "CCCCc1nn(-c2ccc(OC)cc2[N+](=O)[O-])c(=O)n1Cc1ccc(-c2ccccc2-c2nn[nH]n2)cc1", "logIC50": -0.131}
{"smiles": "CCCCc1nn(Cc2ccccc2C(=O)O)c(=O)n1Cc1ccc(-c2ccccc2-c2nn[nH]n2)cc1", "logIC50": 2.69}
{"smiles": "CCCCCc1nn(-c2ccccc2[N+](=O)[O-])c(=O)n1Cc1ccc(-c2ccccc2-c2nn[nH]n2)cc1", "logIC50": -0.0315}
{"smiles": "CCCCc1nn(CC2CCCCC2)c(=O)n1Cc1ccc(-c2ccccc2-c2nn[nH]n2)cc1", "logIC50": 0.462}
{"smiles": "CCCCc1nnc(O)n1Cc1ccc(-c2ccccc2-c2nn[nH]n2)cc1", "logIC50": 1.78}
{"smiles": "CCCCc1nn(C(C(=O)OC)c2ccccc2)c(=O)n1Cc1ccc(-c2ccccc2-c2nn[nH]n2)cc1", "note": "(centres undefined)", "logIC50": 1.08}
{"smiles": "CCCCc1nn(-c2ccccc2OC)c(=O)n1Cc1ccc(-c2ccccc2-c2nn[nH]n2)cc1", "logIC50": 0.82}
{"smiles": "CCCCc1nn(-c2ccccn2)c(=O)n1Cc1ccc(-c2ccccc2-c2nn[nH]n2)cc1", "logIC50": 1.9}
{"smiles": "CCCCc1nn(-c2ccccc2Br)c(=O)n1Cc1ccc(-c2ccccc2-c2nn[nH]n2)cc1", "logIC50": 0.301}
{"smiles": "CCCCc1nn(-c2ccccc2N(C)C)c(=O)n1Cc1ccc(-c2ccccc2-c2nn[nH]n2)cc1", "logIC50": 0.505}
{"smiles": "CCCCc1nn(Cc2ccccc2)c(=O)n1Cc1ccc(-c2ccccc2-c2nn[nH]n2)cc1", "logIC50": 0.663}
{"smiles": "CCCc1nn(-c2ccccc2[N+](=O)[O-])c(=O)n1Cc1ccc(-c2ccccc2-c2nn[nH]n2)cc1", "logIC50": 0.978}
{"smiles": "CCCCc1nn(-c2ccccc2C(=O)O)c(=O)n1Cc1ccc(-c2ccccc2-c2nn[nH]n2)cc1", "logIC50": 2.06}
{"smiles": "CCCCc1nn(C(C)c2ccccc2)c(=O)n1Cc1ccc(-c2ccccc2-c2nn[nH]n2)cc1", "note": "(centres undefined)", "logIC50": 0.69}
{"smiles": "CCCCc1nn(-c2cccc(Cl)c2)c(=O)n1Cc1ccc(-c2ccccc2-c2nn[nH]n2)cc1", "logIC50": 2.08}
{"smiles": "CCCCc1nn(-c2ccccc2C(F)(F)F)c(=O)n1Cc1ccc(-c2ccccc2-c2nn[nH]n2)cc1", "logIC50": 0.0792}
{"smiles": "CCCCc1nn(-c2ccc([N+](=O)[O-])cc2)c(=O)n1Cc1ccc(-c2ccccc2-c2nn[nH]n2)cc1", "logIC50": 1.9}
{"smiles": "CCCCc1nn(C(C)CC)c(=O)n1Cc1ccc(-c2ccccc2-c2nn[nH]n2)cc1", "note": "(centres undefined)", "logIC50": 0.255}
{"smiles": "CCCCc1nn(-c2ccccc2Cc2ccccc2)c(=O)n1Cc1ccc(-c2ccccc2-c2nn[nH]n2)cc1", "logIC50": 1.04}
{"smiles": "CCCCCc1nn(-c2ccccc2Cl)c(=O)n1Cc1ccc(-c2ccccc2-c2nn[nH]n2)cc1", "logIC50": 0.756}
{"smiles": "CCCCc1nn(-c2cccc(OC)c2)c(=O)n1Cc1ccc(-c2ccccc2-c2nn[nH]n2)cc1", "logIC50": 1.18}
{"smiles": "CCCCc1nn(-c2ccccc2N)c(=O)n1Cc1ccc(-c2ccccc2-c2nn[nH]n2)cc1", "logIC50": 2}
{"smiles": "CCCCc1nn(-c2ccccc2F)c(=O)n1Cc1ccc(-c2ccccc2-c2nn[nH]n2)cc1", "logIC50": 0.886}
{"smiles": "CCCc1nn(-c2ccccc2Cl)c(=O)n1Cc1ccc(-c2ccccc2-c2nn[nH]n2)cc1", "logIC50": 1.15}
{"smiles": "CCCCc1nn(CC)c(=O)n1Cc1ccc(-c2ccccc2-c2nn[nH]n2)cc1", "logIC50": 1}
{"smiles": "CCCCc1nn(Cc2ccc(C(=O)OC)cc2)c(=O)n1Cc1ccc(-c2ccccc2-c2nn[nH]n2)cc1", "logIC50": 1.36}
{"smiles": "CCCCc1nn(-c2ccccc2C)c(=O)n1Cc1ccc(-c2ccccc2-c2nn[nH]n2)cc1", "logIC50": 0.613}
{"smiles": "CCCCc1nn(-c2ccc(F)cc2)c(=O)n1Cc1ccc(-c2ccccc2-c2nn[nH]n2)cc1", "logIC50": 1.32}
{"smiles": "CCCCc1nn(-c2ccc(Cl)cc2)c(=O)n1Cc1ccc(-c2ccccc2-c2nn[nH]n2)cc1", "logIC50": 1.84}
{"smiles": "CCCCc1nn(CCCC)c(=O)n1Cc1ccc(-c2ccccc2-c2nn[nH]n2)cc1", "logIC50": 0.462}
{"smiles": "CCCCc1nn(Cc2ccccc2C(=O)OC)c(=O)n1Cc1ccc(-c2ccccc2-c2nn[nH]n2)cc1", "logIC50": 1.04}
{"smiles": "CCCCc1nn(-c2ccc(C(=O)OC)cc2)c(=O)n1Cc1ccc(-c2ccccc2-c2nn[nH]n2)cc1", "logIC50": 1.52}
{"smiles": "CCCCc1nn(-c2cccc([N+](=O)[O-])c2)c(=O)n1Cc1ccc(-c2ccccc2-c2nn[nH]n2)cc1", "logIC50": 1.63}
{"smiles": "CCCCc1nn(CC(C)C)c(=O)n1Cc1ccc(-c2ccccc2-c2nn[nH]n2)cc1", "logIC50": 0.505}
{"smiles": "CCCCc1nn(-c2ccc(CC)cc2)c(=O)n1Cc1ccc(-c2ccccc2-c2nn[nH]n2)cc1", "logIC50": 1.43}
{"smiles": "CCCCc1nn(C)c(=O)n1Cc1ccc(-c2ccccc2-c2nn[nH]n2)cc1", "logIC50": 1.84}
{"smiles": "CCCCc1nn(-c2ccccc2C(=O)OC)c(=O)n1Cc1ccc(-c2ccccc2-c2nn[nH]n2)cc1", "logIC50": 0.748}
{"smiles": "CCCCc1nn(CCC)c(=O)n1Cc1ccc(-c2ccccc2-c2nn[nH]n2)cc1", "logIC50": 0.914}
{"smiles": "CCCCc1nn(-c2ccccc2C(C)C)c(=O)n1Cc1ccc(-c2ccccc2-c2nn[nH]n2)cc1", "logIC50": 0.146}
{"smiles": "CCCCc1nn(-c2cccc(C)c2)c(=O)n1Cc1ccc(-c2ccccc2-c2nn[nH]n2)cc1", "logIC50": 1.25}
{"smiles": "CCCCc1nn(Cc2cccc(C)c2)c(=O)n1Cc1ccc(-c2ccccc2-c2nn[nH]n2)cc1", "logIC50": 1.08}
{"smiles": "CCCCc1nn(-c2c(Cl)cccc2Cl)c(=O)n1Cc1ccc(-c2ccccc2-c2nn[nH]n2)cc1", "logIC50": 0.763}
{"smiles": "CCCCc1nn(-c2c(F)c(F)c(F)c(F)c2F)c(=O)n1Cc1ccc(-c2ccccc2-c2nn[nH]n2)cc1", "logIC50": 1.23}
{"smiles": "CCCCc1nn(-c2ccccc2Cl)c(=O)n1Cc1ccc(-c2ccccc2-c2nn[nH]n2)cc1", "logIC50": 0.38}
{"smiles": "CCCCc1nn(-c2ccc(OC)cc2)c(=O)n1Cc1ccc(-c2ccccc2-c2nn[nH]n2)cc1", "logIC50": 0.699}
{"smiles": "CCCCc1nn(C(C(=O)O)c2ccccc2)c(=O)n1Cc1ccc(-c2ccccc2-c2nn[nH]n2)cc1", "note": "(centres undefined)", "logIC50": 1.83}
{"smiles": "CCCCc1nn(CC(=O)OC)c(=O)n1Cc1ccc(-c2ccccc2-c2nn[nH]n2)cc1", "logIC50": 1.23}
{"smiles": "CCCCc1nn(C(C)C)c(=O)n1Cc1ccc(-c2ccccc2-c2nn[nH]n2)cc1", "logIC50": 0.886}
{"smiles": "CCCCc1nn(-c2ccccc2-c2ccccc2)c(=O)n1Cc1ccc(-c2ccccc2-c2nn[nH]n2)cc1", "logIC50": 0.556}
{"smiles": "CCCCc1nn(Cc2ccccc2C)c(=O)n1Cc1ccc(-c2ccccc2-c2nn[nH]n2)cc1", "logIC50": 1.04}
{"biological_target": "T2, Type-1 angiotensin II receptor (Oryctolagus cuniculus, UniProt P34976)", "T2 sequence (P34976 whole entry)": "T1 sequence (whole entry)", "experiment": "as §1"}
{"smiles": "CCCCc1nn(Cc2c(F)c(F)c(F)c(F)c2F)c(=O)n1Cc1ccc(-c2ccccc2-c2nn[nH]n2)cc1", "pIC50": 8.22}
